The source made the active and inactive calls. The rule behind the calls is not given here. Bounds are passed on as bounds.

The values below come from ChEMBL document CHEMBL6120982, “Cell-penetrating anti-sense peptide nucleic acids targeting sulfatase 2 inhibit adipogenesis in human mesenchymal stem cells” (Bioorg Med Chem, 2024).

For data set [1], the system named is DNA. Briefly: Binding affinity to 10-mer DNA (unknown origin) assessed as melting temperature at 4 uM by UV-Vis spectrophotometric analysis. The class given is nucleic-acid assay.
The subject of data set [2] is Mesenchymal stem cells. The data set can be described thus: Cytotoxicity against human BMMSC cells assessed as effect on cell viability upto 1 uM incubated for 24 hrs by CCK8 assay. Type of data set: toxicity, cell-based. For orientation: Tetrazolium assays rely on reduction of a dye to a coloured formazan, in cell work by metabolically active cells.
Data set [3] relates to Mesenchymal stem cells. Briefly: Inhibition of SULF2 mRNA expression in human BMMSC cells at 0.1 uM by RT-qPCR analysis. The class given is functional, cell-based. In general terms: Real-time PCR tracks product formation cycle by cycle.
Data set [4] deals with Mesenchymal stem cells. Briefly: Anti-adipogenic activity in insulin/dexamthasone/pioglitazone/IBMX differentiated human BMMSC cells assessed as downregulation of adiponectin protein secretion at 1 uM by ELISA. The class given is functional, cell-based. For orientation: An ELISA detects its analyte on a solid surface through an enzyme-linked reagent.
Data set [5] relates to Mesenchymal stem cells. The data set can be described thus: Effect on osteogenesis in ascorbic acid/dexamethasone/beta-glycerol phosphate differentiated human BMMSC cells. Type of data set: functional, cell-based.
Data set [6] deals with DNA. The data set can be described thus: Binding affinity to N-terminal of 10-mer c-DNA (unknown origin) assessed as melting temperature at 4 uM by UV-Vis spectrophotometric analysis. The class given is nucleic-acid assay.
Data set [7] relates to Mesenchymal stem cells. The data set can be described thus: Anti-adipogenic activity in insulin/dexamthasone/pioglitazone/IBMX differentiated human BMMSC cells assessed as downregulation of adiponectin protein secretion by ELISA. Type of data set: functional, cell-based.
Data set [8] deals with Mesenchymal stem cells. The data set can be described thus: Inhibition of SULF2 mRNA expression in human BMMSC cells by RT-qPCR analysis. The class given is functional, cell-based. The following applies: dose 0.01-1 µM.
Data set [9] has as its system DNA. The data set can be described thus: Binding affinity to C-terminal of 10-mer c-DNA (unknown origin) assessed as melting temperature at 4 uM by UV-Vis spectrophotometric analysis. The class given is nucleic-acid assay.

`NCCCCCNc1nc(N)c2ncn(CC(=O)N(CCNC(=O)CN(CCNC(=O)CN(CCNC(=O)CN(CCNC(=O)CN(CCNC(=O)CN(CCN)C(=O)Cn3cnc4c(N)ncnc43)C(=O)Cn3cnc4c(=O)[nH]c(N)nc43)C(=O)Cn3ccc(N)nc3=O)C(=O)Cn3cnc4c(N)ncnc43)C(=O)Cn3ccc(N)nc3=O)CC(=O)NCCN(CC(=O)NCCN(CC(=O)NCCN(CC(=O)NCCN(CC(N)=O)C(=O)Cn3cnc4c(N)ncnc43)C(=O)Cn3ccc(N)nc3=O)C(=O)Cn3cnc4c(N)ncnc43)C(=O)Cn3cnc4c(=O)[nH]c(N)nc43)c2n1`: the Tm in data set [1] was determined as 69.2 °C.
In the case of `NCCN(CC(=O)NCCN(CC(=O)NCCN(CC(=O)NCCN(CC(=O)NCCN(CC(=O)NCCN(CC(=O)NCCN(CC(=O)NCCN(CC(=O)NCCN(CC(=O)NCCN(CC(N)=O)C(=O)Cn1cnc2c(N)ncnc21)C(=O)Cn1ccc(N)nc1=O)C(=O)Cn1cnc2c(N)ncnc21)C(=O)Cn1cnc2c(=O)[nH]c(N)nc21)C(=O)Cn1cnc2c(N)ncnc21)C(=O)Cn1ccc(N)nc1=O)C(=O)Cn1cnc2c(N)ncnc21)C(=O)Cn1ccc(N)nc1=O)C(=O)Cn1cnc2c(=O)[nH]c(N)nc21)C(=O)Cn1cnc2c(N)ncnc21`, the Tm in data set [1] is 65.2 °C.
On the same count and under the same terms, with `NCCCCCCNc1nc2c(ncn2CC(=O)N(CCN)CC(=O)NCCN(CC(=O)NCCN(CC(=O)NCCN(CC(=O)NCCN(CC(=O)NCCN(CC(=O)NCCN(CC(=O)NCCN(CC(=O)NCCN(CC(=O)NCCN(CC(N)=O)C(=O)Cn2cnc3c(=O)[nH]c(N)nc32)C(=O)Cn2cnc3c(N)ncnc32)C(=O)Cn2cnc3c(=O)[nH]c(N)nc32)C(=O)Cn2ccc(N)nc2=O)C(=O)Cn2cnc3c(=O)[nH]c(N)nc32)C(=O)Cn2cnc3c(N)nc(NCCCCCN)nc32)C(=O)Cn2cnc3c(=O)[nH]c(N)nc32)C(=O)Cn2cnc3c(N)ncnc32)C(=O)Cn2ccc(N)nc2=O)c(=O)[nH]1` the figure was 76.9 °C; with `NCCCCCCNc1nc2c(ncn2CC(=O)N(CCNC(=O)CN(CCNC(=O)CN(CCNC(=O)CN(CCNC(=O)CN(CCNC(=O)CN(CCN)C(=O)Cn2cnc3c(=O)[nH]c(N)nc32)C(=O)Cn2ccc(N)nc2=O)C(=O)Cn2cnc3c(N)ncnc32)C(=O)Cn2cnc3c(=O)[nH]c(NCCCCCCN)nc32)C(=O)Cn2cnc3c(N)nc(NCCCCCN)nc32)CC(=O)NCCN(CC(=O)NCCN(CC(=O)NCCN(CC(=O)NCCN(CC(N)=O)C(=O)Cn2cnc3c(=O)[nH]c(N)nc32)C(=O)Cn2cnc3c(N)ncnc32)C(=O)Cn2cnc3c(=O)[nH]c(NCCCCCCN)nc32)C(=O)Cn2ccc(N)nc2=O)c(=O)[nH]1`, 74.8 °C.
Regarding `NCCN(CC(=O)NCCN(CC(=O)NCCN(CC(=O)NCCN(CC(=O)NCCN(CC(=O)NCCN(CC(=O)NCCN(CC(=O)NCCN(CC(=O)NCCN(CC(=O)NCCN(CC(N)=O)C(=O)Cn1ccc(N)nc1=O)C(=O)Cn1cnc2c(=O)[nH]c(N)nc21)C(=O)Cn1cnc2c(N)ncnc21)C(=O)Cn1cnc2c(=O)[nH]c(N)nc21)C(=O)Cn1cnc2c(N)ncnc21)C(=O)Cn1ccc(N)nc1=O)C(=O)Cn1cnc2c(N)ncnc21)C(=O)Cn1cnc2c(=O)[nH]c(N)nc21)C(=O)Cn1cnc2c(N)ncnc21)C(=O)Cn1ccc(N)nc1=O`, in data set [1], the Tm is 71 °C.
By IC50 is commonly meant the concentration that gives 50% inhibition. Consider `Cc1cn(CC(=O)N(CCNC(=O)CN(CCNC(=O)CN(CCNC(=O)CN(CCNC(=O)CN(CCNC(=O)CN(CCNC(=O)CN(CCNC(=O)CN(CCNC(=O)CN(CCNC(=O)CN(CCNC(=O)CN(CCNC(=O)CN(CCNC(=O)CN(CCNC(=O)CN(CCNC(=O)CN(CCNC(=O)CN(CCNC(=O)CN(CCNC(=O)CN(CCNC(=O)CN(CCNC(=O)CN(CCNC(=O)OCCC2c3ccccc3-c3ccccc32)C(=O)Cn2cnc3c(=O)[nH]c(N)nc32)C(=O)Cn2cnc3c(=O)[nH]c(NCCCCCCN)nc32)C(=O)Cn2cnc3c(=O)[nH]c(N)nc32)C(=O)Cn2cnc3c(=O)[nH]c(N)nc32)C(=O)Cn2cc3cc(COCCN)[nH]c3nc2=O)C(=O)Cn2ccc(N)nc2=O)C(=O)Cn2ccc(N)nc2=O)C(=O)Cn2cnc3c(N)nc(NCCCCCN)nc32)C(=O)Cn2cc(C)c(=O)[nH]c2=O)C(=O)Cn2ccc(N)nc2=O)C(=O)Cn2cc(C)c(=O)[nH]c2=O)C(=O)Cn2cc(C)c(=O)[nH]c2=O)C(=O)Cn2cc3cc(COCCN)[nH]c3nc2=O)C(=O)Cn2cc(C)c(=O)[nH]c2=O)C(=O)Cn2cc(C)c(=O)[nH]c2=O)C(=O)Cn2cc(C)c(=O)[nH]c2=O)C(=O)Cn2cc(C)c(=O)[nH]c2=O)C(=O)Cn2cc(C)c(=O)[nH]c2=O)C(=O)Cn2cc(C)c(=O)[nH]c2=O)CC(N)=O)c(=O)[nH]c1=O`, for which the Activity entry in [2] is given as “Non-toxic”. Also, the figures for the inhibition entry in data set [3] and in data set [8] were “Mild_effect” and “Dose-dependent-effect”, respectively. Further, the outcome in data set [4] was Active. The outcome in data set [5] was inactive. In addition, the Tm in [6] is > 90 °C. The IC50 in [7] is > 1000 nM.
Turning to `NCCCCCNc1nc(N)c2ncn(CC(=O)N(CCNC(=O)CN(CCNC(=O)CN(CCNC(=O)CN(CCNC(=O)CN(CCN)C(=O)Cn3cnc4c(=O)[nH]c(N)nc43)C(=O)Cn3ccc(N)nc3=O)C(=O)Cn3cnc4c(N)ncnc43)C(=O)Cn3cnc4c(=O)[nH]c(N)nc43)CC(=O)NCCN(CC(=O)NCCN(CC(=O)NCCN(CC(=O)NCCN(CC(=O)NCCN(CC(N)=O)C(=O)Cn3cnc4c(=O)[nH]c(N)nc43)C(=O)Cn3cnc4c(N)ncnc43)C(=O)Cn3cnc4c(=O)[nH]c(N)nc43)C(=O)Cn3ccc(N)nc3=O)C(=O)Cn3cnc4c(=O)[nH]c(N)nc43)c2n1`, the Tm in [1] is 75.9 °C.
Turning to `NCCOCc1cc2cn(CC(=O)N(CCNC(=O)CN(CCNC(=O)CN(CCNC(=O)CN(CCNC(=O)CN(CCN)C(=O)Cn3ccc(N)nc3=O)C(=O)Cn3cnc4c(N)ncnc43)C(=O)Cn3cnc4c(=O)[nH]c(N)nc43)C(=O)Cn3cnc4c(N)ncnc43)CC(=O)NCCN(CC(=O)NCCN(CC(=O)NCCN(CC(=O)NCCN(CC(=O)NCCN(CC(N)=O)C(=O)Cn3ccc(N)nc3=O)C(=O)Cn3cnc4c(=O)[nH]c(N)nc43)C(=O)Cn3cnc4c(N)ncnc43)C(=O)Cn3cnc4c(=O)[nH]c(N)nc43)C(=O)Cn3cnc4c(N)ncnc43)c(=O)nc2[nH]1`, in data set [1], the Tm was 77.2 °C.
In the case of `Cc1cn(CC(=O)N(CCNC(=O)CN(CCNC(=O)CN(CCNC(=O)CN(CCNC(=O)CN(CCNC(=O)CN(CCNC(=O)CN(CCNC(=O)CN(CCNC(=O)CN(CCNC(=O)CN(CCNC(=O)CN(CCNC(=O)CN(CCNC(=O)CN(CCNC(=O)CN(CCNC(=O)CN(CCNC(=O)CN(CCNC(=O)CN(CCNC(=O)CN(CCNC(=O)OCCC2c3ccccc3-c3ccccc32)C(=O)Cn2cc(C)c(=O)[nH]c2=O)C(=O)Cn2cnc3c(=O)[nH]c(N)nc32)C(=O)Cn2ccc(N)nc2=O)C(=O)Cn2cnc3c(N)nc(NCCCCCN)nc32)C(=O)Cn2cc(C)c(=O)[nH]c2=O)C(=O)Cn2cnc3c(=O)[nH]c(N)nc32)C(=O)Cn2cnc3c(=O)[nH]c(N)nc32)C(=O)Cn2cnc3c(N)nc(NCCCCCN)nc32)C(=O)Cn2cnc3c(N)ncnc32)C(=O)Cn2ccc(N)nc2=O)C(=O)Cn2cc3cc(COCCN)[nH]c3nc2=O)C(=O)Cn2cc(C)c(=O)[nH]c2=O)C(=O)Cn2cnc3c(=O)[nH]c(N)cc32)C(=O)Cn2ccc(N)nc2=O)C(=O)Cn2cnc3c(N)nc(NCCCCCN)nc32)C(=O)Cn2cnc3c(N)ncnc32)C(=O)Cn2cnc3c(=O)[nH]c(NCCCCCCN)nc32)CC(=O)NCCN(CC(=O)NCCN(CC(N)=O)C(=O)Cn2cnc3c(N)ncnc32)C(=O)Cn2ccc(N)nc2=O)c(=O)[nH]c1=O`, the Activity result in [2] is on record as “Non-toxic”. Also, the inhibition result in data set [3] was “inactive”. Further, the result in [5] was inactive. The values for the Tm in data set [6] and in [9] were 66.4 °C and 51.1 °C, respectively.
With `Cc1cn(CC(=O)N(CCNC(=O)CN(CCNC(=O)CN(CCNC(=O)CN(CCNC(=O)CN(CCNC(=O)CN(CCNC(=O)CN(CCNC(=O)CN(CCNC(=O)CN(CCNC(=O)CN(CCNC(=O)CN(CCNC(=O)CN(CCNC(=O)CN(CCNC(=O)CN(CCNC(=O)CN(CCNC(=O)CN(CCNC(=O)CN(CCNC(=O)CN(CCNC(=O)CN(CCNC(=O)OCCC2c3ccccc3-c3ccccc32)C(=O)Cn2ccc(N)nc2=O)C(=O)Cn2cc3cc(COCCN)[nH]c3nc2=O)C(=O)Cn2ccc(N)nc2=O)C(=O)Cn2cc(C)c(=O)[nH]c2=O)C(=O)Cn2cnc3c(=O)[nH]c(NCCCCCCN)nc32)C(=O)Cn2ccc(N)nc2=O)C(=O)Cn2cc(C)c(=O)[nH]c2=O)C(=O)Cn2ccc(N)nc2=O)C(=O)Cn2cnc3c(=O)[nH]c(NCCCCCN)nc32)C(=O)Cn2ccc(N)nc2=O)C(=O)Cn2ccc(N)nc2=O)C(=O)Cn2cc(C)c(=O)[nH]c2=O)C(=O)Cn2cnc3c(=O)[nH]c(NCCCCCCN)nc32)C(=O)Cn2cc(C)c(=O)[nH]c2=O)C(=O)Cn2ccc(N)nc2=O)C(=O)Cn2ccc(N)nc2=O)C(=O)Cn2cnc3c(=O)[nH]c(NCCCCCCN)nc32)C(=O)Cn2cnc3c(=O)[nH]c(N)nc32)CC(=O)NCCN(N)C(=O)Cn2cnc3c(N)ncnc32)c(=O)[nH]c1=O`, in [2], the Activity entry is on record as “Non-toxic”. For the same molecule, the inhibition entry in data set [3] is “inactive”. Moreover, in data set [5], the result was inactive. Further, the values for the Tm in [6] and in data set [9] were 77 °C and 63.5 °C, respectively.
`Cc1cn(CC(=O)N(CCN)CC(=O)NCCN(CC(=O)NCCN(CC(=O)NCCN(CC(=O)NCCN(CC(=O)NCCN(CC(=O)NCCN(CC(=O)NCCN(CC(=O)NCCN(CC(=O)NCCN(CC(N)=O)C(=O)Cn2cnc3c(N)ncnc32)C(=O)Cn2cc3cc(COCCN)[nH]c3nc2=O)C(=O)Cn2cnc3c(=O)[nH]c(N)nc32)C(=O)Cn2cnc3c(N)ncnc32)C(=O)Cn2cc3cc(COCCN)[nH]c3nc2=O)C(=O)Cn2cnc3c(N)ncnc32)C(=O)Cn2cnc3c(=O)[nH]c(N)nc32)C(=O)Cn2cnc3c(N)ncnc32)C(=O)Cn2ccc(N)nc2=O)c(=O)[nH]c1=O`: the Tm in data set [1] was determined as 76.4 °C.
`Cc1cn(CC(=O)N(CCN)CC(=O)NCCN(CC(=O)NCCN(CC(=O)NCCN(CC(=O)NCCN(CC(=O)NCCN(CC(=O)NCCN(CC(=O)NCCN(CC(=O)NCCN(CC(=O)NCCN(CC(N)=O)C(=O)Cn2cnc3c(N)ncnc32)C(=O)Cn2ccc(N)nc2=O)C(=O)Cn2cnc3c(=O)[nH]c(N)nc32)C(=O)Cn2cnc3c(N)ncnc32)C(=O)Cn2ccc(N)nc2=O)C(=O)Cn2cnc3c(N)ncnc32)C(=O)Cn2cnc3c(=O)[nH]c(N)nc32)C(=O)Cn2cnc3c(N)ncnc32)C(=O)Cn2ccc(N)nc2=O)c(=O)[nH]c1=O`: the Tm in data set [1] came out at 66.2 °C.
